Experimental data taken from article PMC9967275, “Screening the Pathogen Box to Discover and Characterize New Cruzain and TbrCatL Inhibitors” (Pathogens, 2023).

Legend:
[1] = molecular target: T1, TbrCatL (Trypanosoma brucei rhodesiense, UniProt Q95PM0); experiment: TbrCatL enzymatic inhibition assay (cleavage of fluorogenic substrate Z-FR-AMC); type: biochemical; conditions: for TbrCatL 0’ Inhibition / TbrCatL 10’ Inhibition: sheet "Screening results"
T1 construct: Conor Caffrey (University of California San Diego)
Outline: (§1)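 Recombinant enzymes assayed by Z-Phe-Arg-AMC cleavage at 25 °C, fluorescence 340/440 nm over 5–7 min, with 10 min or no enzyme–compound preincubation.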

[2] = molecular target: cruzain (Trypanosoma cruzi, UniProt P25779); experiment: biochemical; conditions: for Cruzain 0’ Inhibition / Cruzain 10’ Inhibition: sheet "Screening results"
Outline: as §1

[3] = 0’ (no pre-incubation), sheet Screening results
[4] = 10’ (pre-incubation), sheet Screening results
[5] = 0’ (pre-incubation time), Pathogen Box screening results
[6] = 10’ (pre-incubation time), Pathogen Box screening results
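Also: at 5 µM compound concentration.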

Sequence of cruzain (P25779 123-337 limits assumed): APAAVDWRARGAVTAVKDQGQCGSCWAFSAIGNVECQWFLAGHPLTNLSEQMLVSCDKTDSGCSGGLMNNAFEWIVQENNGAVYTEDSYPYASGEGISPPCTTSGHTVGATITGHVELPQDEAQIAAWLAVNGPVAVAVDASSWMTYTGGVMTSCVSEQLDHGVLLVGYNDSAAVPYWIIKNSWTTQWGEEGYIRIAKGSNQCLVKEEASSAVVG
T1 sequence (Q95PM0 entry or part of it): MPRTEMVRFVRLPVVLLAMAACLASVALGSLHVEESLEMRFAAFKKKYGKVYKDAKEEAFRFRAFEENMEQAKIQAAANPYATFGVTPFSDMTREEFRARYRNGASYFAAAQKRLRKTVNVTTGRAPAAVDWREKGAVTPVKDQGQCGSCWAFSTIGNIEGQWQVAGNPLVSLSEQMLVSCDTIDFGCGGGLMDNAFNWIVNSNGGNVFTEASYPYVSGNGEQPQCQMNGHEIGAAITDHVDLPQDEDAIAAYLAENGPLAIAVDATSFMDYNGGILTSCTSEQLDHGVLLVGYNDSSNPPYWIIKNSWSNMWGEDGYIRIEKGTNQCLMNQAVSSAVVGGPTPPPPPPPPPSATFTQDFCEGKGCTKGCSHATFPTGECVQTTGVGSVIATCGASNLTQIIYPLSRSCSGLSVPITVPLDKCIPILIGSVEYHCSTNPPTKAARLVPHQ

SMILES	TbrCatL 0’ Inhibition ([1]; 0’ (pre-incubation time)) [%]	TbrCatL 10’ Inhibition ([1]; 10’ (pre-incubation time)) [%]	Cruzain 0’ Inhibition ([2]; 0’ (pre-incubation time)) [%]	Cruzain 10’ Inhibition ([2]; 10’ (pre-incubation time)) [%]	TbrCatL Inhibition 0’ [1, 3] [%]	TbrCatL Inhibition 10’ [1, 4] [%]	Cruzain Inhibition 0’ [2, 3] [%]	Cruzain Inhibition 10’ [2, 4] [%]	also measured
Clc1ccc(-n2cc(COc3ccnc4ccccc34)nn2)cc1 [MMV675994]	-1.8	11	5	14	–	–	–	–	–
COc1ccc(CCN2CCC(NCc3cccc(N(C)C)c3)CC2)cc1 [MMV011511]	0.4	9	5.7	3.6	–	–	–	–	–
COc1ccc2nc(C)cc(OCC(=O)NCc3ccccc3)c2c1 [MMV687189]	2.6	5	4.5	-1.1	–	–	–	–	–
O[C@@H](c1cc(C(F)(F)F)nc2c(C(F)(F)F)cccc12)[C@H]1CCCCN1 [MMV000016]	–	–	–	–	2.4	-2.6	-5.4	-9	–
COc1ccc(Cl)cc1NC(=O)CN(C)C(=O)c1cnn(-c2ccccc2)n1 [MMV020710]	–	–	–	–	-10	-99	-11	-36	–
O=C(c1cc2ccccc2o1)N1CCN(Cc2ccc3c(c2)OCO3)CC1 [MMV676520]	–	–	–	–	5	-4.7	-1.2	-3.3	–
CC(C)(C)C(=O)N(CCCCCCN1C[C@H](O)[C@@H](O)[C@H](O)[C@H]1CO)C1CCCCCC1 [MMV688543]	–	–	–	–	–	–	–	–	TbrCatL Inhibition 0’ [1, 5]: -7%; TbrCatL Inhibition 10’ [1, 6]: 1.7%; Cruzain Inhibition 0’ [2, 5]: -1.2%; Cruzain Inhibition 10’ [2, 6]: 7.5%
COc1ccc(-c2cncc3ccc(C(=O)NCCCn4ccnc4)nc23)cc1 [MMV020670]	-3	-13	-2.2	-17	–	–	–	–	–
CC(=O)NCC1CN(c2ccc(-c3ccc(CO)cc3)c(F)c2)C(=O)O1 (centres unmarked) [MMV688508]	–	–	–	–	-0.7	-5	-0.1	-2	–
O=C(Nc1ccc(F)c(-c2nc3ncc(-c4ccccc4)cc3[nH]2)c1)N1CCCC1 [MMV688372]	-5	-11	4	4.3	–	–	–	–	–
Cc1nn(C)cc1C(C)Nc1nncc(-c2ccc(C(F)(F)F)cc2)n1 (centres unmarked) [MMV019993]	0.6	-3.6	-5	-1.8	–	–	–	–	–
Clc1ccc(CCNc2cc(-c3ccccc3)nc3ncnn23)cc1 [MMV688889]	–	–	–	–	20	13	15	14	–
CCc1ccc(S(=O)(=O)Nc2cc(CN3CCN(CCC(C)C)CC3)ccc2C)cc1 [MMV688124]	-3.3	1	-1.8	3	–	–	–	–	–
Nc1cccnc1Nc1ccc(Cl)cc1 [MMV676524]	11	11	4.7	13	–	–	–	–	–
